Laboratory results taken from ChEMBL document CHEMBL4840341, “Voatriafricanines A and B, Trimeric Vobasine-Aspidosperma-Aspidosperma Alkaloids from Voacanga africana” (J Nat Prod, 2021).
Values after ≈ are worked out from the molar mass of the structure shown.

Columns and labels:
Assay type in all cases: functional
Pseudomonas aeruginosa = test: Antibacterial activity against Pseudomonas aeruginosa ATCC 15442 assessed as inhibition of bacterial growth incubated for 24 hrs by broth microdilution method
[1] = Antimycobacterial activity against Mycobacterium abscessus subsp. bolletii assessed as inhibition of mycobacterial growth incubated for 2 to 3 days by broth microdilution method; details: Mycobacteroides abscessus; time 2-3 day
[2] = tested on: Mycolicibacterium smegmatis; test: Antimycobacterial activity against Mycobacterium smegmatis CIP7326 assessed as inhibition of mycobacterial growth incubated for 24 hrs by broth microdilution method

Molecule | MIC (Pseudomonas aeruginosa) | MIC [1] | MIC [2]
cetrimide | 0.1 µg/mL |  | 
CO[C@H]1/C=C/O[C@@]2(C)Oc3c(C)c(O)c4c(O)c(c(/C=N/N5CCN(C)CC5)c(O)c4c3C2=O)NC(=O)/C(C)=C\C=C\[C@H](C)[C@H](O)[C@@H](C)[C@@H](O)[C@@H](C)[C@H](OC(C)=O)[C@@H]1C [RIFAMPIN] |  | 0.1 µg/mL (≈ 0.122 µM) | 0.1 µg/mL (≈ 0.122 µM)
